# Experimental data taken from US20070174926A1, “Sperm factor oscillogenin” (priority 2000, published 2007).
# “Also recorded” adds a separate entry of the source. Marks after values point to notes of the source that are not given here.
# Tests used:
# mouse eggs [1] = test: [Ca2+]i monitoring in fura-2 D loaded mouse eggs after agonist injection or exposure; type: cell-based; conditions: for Frequency of [Ca2+]i rises, in words: SF and adenophostin A compared with fertilization, p<0.05; for # of rises in 5 min: frequency during 5 min after return of first rise to baseline (Adenophostin A, SF) or after addition (SrCl2, thimerosal); for # of rises in 5 min / Duration of 1st rise / Duration of 3rd rise / Amplitude of 1st rise / Amplitude of 3rd rise: mean ± SEM; for Amplitude of 1st rise / Amplitude of 3rd rise: [Ca2+]i
# Experimental: Microinjection procedures were carried out as previously described (Wu et al., Dev. Biol. 203: 369-81 (1998)). Briefly, eggs were placed in a 50 μl microdrop of TL-Hepes supplemented with 2.5% sucrose and 20% FCS under paraffin oil and injected using manipulators (Narishige, Medical Systems Corp., Great Neck, N.Y.) mounted on a Nikon Diaphot microscope (Nikon, Inc., Garden City, N.Y.). Injection pipettes were loaded by suction from a 2-3 μl drop containing one of the following compounds: 0.5 mM fura-2 dextran (fura-2 D; […] K. Tanzawa, Sankyo Colo., Tokyo, Japan). All reagents were diluted in buffer containing 75 mM KCl and 20 mM HEPES, pH 7.0 and were delivered into the ooplasm by pneumatic pressure using a PLI-100 picoinjector (Medical Systems Corp.). […] Wu et al., 1998), and 100 nM for adenophostin A. […] Exp. Zool. 226: 311-14 (1983); and […] et al., J. Reprod. […] Swann, Biochem J. 287: 79-84 (1992); and Sato et al., Biol. Reprod. 58: 867-73 (1998)). […] Activation was started in all cases at 16 hr post hCG administration (phCG) and eggs evaluated visually 2 hr later by observing second polar body extrusion (18 hr phCG) and 5 hr post-treatment by evaluation of pronuclear formation. After the activation procedure and the assigned incubation period (1, 2, 4 or 8 hr), eggs were collected in 5 μl Dulbecco's phosphate buffered solution (DPBS)/polyvinylpyrrolidone (3 mg/ml, PVP) and stored at -80° C. […] Ethanol activation was carried out by exposing eggs to a 7% ethanol solution in TL-Hepes plus 3 mg/ml bovine serum albumin (BSA) for 5 min at 37° C. After the treatment, eggs were washed several times in TL-Hepes, and cultured for 8 hr (24 hr-phCG). […] Biol. 166: 729-39 (1994)) was accomplished by incubating eggs with 5 μM ionomycin for 5 min in Ca^2+ free-DPBS plus 3 mg/ml BSA. Eggs were then washed in TL-Hepes/1 mg/ml BSA, placed in DMAP/KSOM (2 mM) for 4 hr and cultured for 4 hr after carefuilly washing them free of DMAP. Eggs activated with SrCl2 were incubated for 2 or 4 hr in a Ca^2+-free M-16-like medium supplemented with 10 mM SrCl2. The treated eggs were then washed in TL-Hepes supplemented with 5% FCS and cultured for 2, 4 or 6 hr, depending on the experiment. […] Fluorescence Recordings and [Ca^2+]i Determinations Monitoring of [Ca^2+]i levels using fura-2 D loaded eggs was carried out as previously described (Wu et al., 1998). UV illumination was provided by a 75 watt xenon arc lamp, and 340 and 380 nm excitation wavelengths were utilized. The intensity of the UV light was attenuated 32-fold with neutral density filters, and a photomultiplier tube quantified the emitted light after passing through a 500 nm barrier filter. The fluorescence signal was averaged for the whole egg. A modified Phoscan 3.0 software program run on a 486 IBM-compatible system controlled the rotation of the filter wheel and shutter apparatus to alternate wavelengths. Free [Ca^2+]i was determined from the 340 nm/380 nm ratio of fluorescence. Rmin and Rmax were calculated using […] fura-2 D in Ca^2+-free DPBS supplemented with 2 mM EDTA (Rmin) or 2 mM CaCl2 (Rmax) and with 60% sucrose to correct for intracellular viscosity (Grynkiewicz et al., J. Biol. Chem. 260: 3440-50 (1985); and Poenie, Cell Calcium 11: 85-91 (1990)). The same solutions were also used alone for background subtractions. Ca^2+ measurements carried out in the presence of extracellular SrCl2 are presented as fluorescence ratios of the 340 nm/380 nm excitation wavelengths. Calculations of the [Ca^2+]i concentration was in this case not performed, since fura-2 has also some affinity for Sr^2+. The presence of intracellular Sr^2+ therefore interferes and prevents obtaining […] and/or Sr2+ intracellular concentrations (Hajnoczky et al., EMBO J., 16: 3533-43 (1997)). Eggs were measured individually in 35 μl drops of TL-Hepes medium placed on a glass coverslip on the bottom of a plastic culture dish under paraffin oil. […]
# mouse eggs [2] = test: Parthenogenetic activation of mouse eggs (second polar body extrusion, pronuclear formation); type: cell-based; conditions: for Egg activation: result in words
# Excerpt: (§1) Several commonly used parthenogenetic agents were used during the course of these studies, including ethanol and ionomycin, which induce a single [Ca^2+]i rise (Cuthbertson, J. Exp. Zool. 226: 311-14 (1983); and Shiina et al., J. Reprod. Fert 97: 143-50 (1993)), and others such as adenophostin A, SF, thimerosal, and SrCl2 that evoke [Ca^2+]i oscillations (Kline et al., Dev. Biol. 149: 80-9 (1992); Swann, Biochem J. 287: 79-84 (1992); and Sato et al., Biol. Reprod. 58: 867-73 (1998)). The activating compounds were either injected into eggs (e.g., adenophostin A and SF, see microinjection procedures for details) or added to the eggs' culture media (e.g., thimerosal, SrCl2). Activation was started in all cases at 16 hr post hCG administration (phCG) and eggs evaluated visually 2 hr later by observing second polar body extrusion (18 hr phCG) and 5 hr post-treatment by evaluation of pronuclear formation. After the activation procedure and the assigned incubation period (1, 2, 4 or 8 hr), eggs were collected in 5 μl Dulbecco's phosphate buffered solution (DPBS)/polyvinylpyrrolidone (3 mg/ml, PVP) and stored at −80° C.
# Ethanol activation was carried out by exposing eggs to a 7% ethanol solution in TL-Hepes plus 3 mg/ml bovine serum albumin (BSA) for 5 min at 37° C. After the treatment, eggs were washed several times in TL-Hepes, and cultured for 8 hr (24 hr-phCG). Activation with ionomycin and 6-dimethylaminopurine (DMAP), a kinase inhibitor (Susko-Parrish et al., Dev. Biol. 166: 729-39 (1994)) was accomplished by incubating eggs with 5 μM ionomycin for 5 min in Ca^2+ free-DPBS plus 3 mg/ml BSA. Eggs were then washed in TL-Hepes/1 mg/ml BSA, placed in DMAP/KSOM (2 mM) for 4 hr and cultured for 4 hr after carefuilly washing them free of DMAP. Eggs activated with SrCl2 were incubated for 2 or 4 hr in a Ca^2+-free M-16-like medium supplemented with 10 mM SrCl2. The treated eggs were then washed in TL-Hepes supplemented with 5% FCS and cultured for 2, 4 or 6 hr, depending on the experiment. […]
# IP3R-1 = test: Western blot quantification of IP3R-1 immunoreactivity in mouse eggs; type: cell-based; conditions: for IP3R-1 down-regulation (degradation): activation started 16 hr phCG, band intensity relative to MII eggs
# Excerpt: as §1
# Ethanol activation was carried out by exposing eggs to a 7% ethanol solution in TL-Hepes plus 3 mg/ml bovine serum albumin (BSA) for 5 min at 37° C. After the treatment, eggs were washed several times in TL-Hepes, and cultured for 8 hr (24 hr-phCG). Activation with ionomycin and 6-dimethylaminopurine (DMAP), a kinase inhibitor (Susko-Parrish et al., Dev. Biol. 166: 729-39 (1994)) was accomplished by incubating eggs with 5 μM ionomycin for 5 min in Ca^2+ free-DPBS plus 3 mg/ml BSA. Eggs were then washed in TL-Hepes/1 mg/ml BSA, placed in DMAP/KSOM (2 mM) for 4 hr and cultured for 4 hr after carefuilly washing them free of DMAP. Eggs activated with SrCl2 were incubated for 2 or 4 hr in a Ca^2+-free M-16-like medium supplemented with 10 mM SrCl2. The treated eggs were then washed in TL-Hepes supplemented with 5% FCS and cultured for 2, 4 or 6 hr, depending on the experiment. For thimerosal activation, eggs were exposed to freshly made solutions of 200 μM thimerosal in KSOM for 30 min. Thimerosal-treated eggs were washed free of the reagent using TL-Hepes supplemented with 5% FCS and incubated for 30 min, 1.5, 3.5 or 7.5 hr.
# Lactacystin (100 μM; Calbiochem, La Jolla, Calif.), a proteasome inhibitor (Mellgren, J. Biol. Chem. 272: 29899-903 (1997); and Fenteany et al., J. Biol. Chem. 273: 8545-48 (1998)), was used to determine if the proteasome was involved in down-regulation of the IP3R-1 by SF. Eggs were incubated in the inhibitor for 30 min. prior to injections, and injections of SF were carried out in the presence of the inhibitor. Eggs were then cultured in a new drop of KSOM freshly supplemented with lactacystin for 2 hr.
# Equal volumes of crude lysates from 15 or 20 mouse eggs and double strength sample buffer (Laemmli, Nature 227: 680-5 (1970)) were combined as previously described (He et al., Biol. Reprod. 57: 1245-55 (1997)). Samples were boiled for 3 min and loaded into a 4% SDS-polyacrylamide gels. The separated proteins were transferred onto nitrocellulose membranes (Micron Separation; Westboro, Mass.) using a Mini Trans Blot Cell (Bio-Rad; Hercules, Calif.) for 2 hr at 4° C. The membranes were first washed in PBS and 0.05% Tween (PBS-T) and then blocked in 6% nonfat dry milk in PBS-T for 1 hr. […]
# IP3R = conditions: full IP3R agonist; cited from earlier work
SMILES,"Frequency of [Ca2+]i rises, in words (mouse eggs [1])",# of rises in 5 min (mouse eggs [1]),Duration of 1st rise (mouse eggs [1]),Duration of 3rd rise (mouse eggs [1]),Egg activation (mouse eggs [2]),IP3R-1 down-regulation (degradation) (IP3R-1),"Cell cycle progression assessed by extrusion of the polar body in SF-injected eggs (mouse eggs [2]; eggs pretreated and incubated with inhibitor, not shown)","Effect on SF-induced degradation of IP3R-1 (IP3R-1; 100 μM inhibitor, 30 min preincubation, 2 hr after SF injection)",Amplitude of 1st rise (mouse eggs [1]),Amplitude of 3rd rise (mouse eggs [1]),Potency relative to IP3 (IP3R)
[Cl-].[Cl-].[Sr+2] [SrCl2],lower frequency,1 ± 0.0^b,740 ± 290^b sec,360 ± 70^b sec,high rates of egg activation,failed to induce any changes,,,,,
CC(=O)N[C@@H](CSC(=O)[C@]1([C@@H](O)C(C)C)NC(=O)[C@H](C)[C@@H]1O)C(=O)O [lactacystin],,,,,,,clearly delayed,markedly inhibited,,,
CCO [ethanol],,,,,high rates of activation,does not induce down regulation of IP3R-1,,,,,
"Nc1ncnc2c1ncn2[C@@H]1O[C@H](CO)[C@@H](O[C@H]2O[C@H](CO)[C@@H](OP(=O)(O)O)[C@H](OP(=O)(O)O)[C@H]2O)[C@H]1OP(=O)(O)O [Adenophostin A, adenophostin A]",higher frequency,"3.9 ± 1.5^a*,*",260 ± 65^a sec,70 ± 22^a sec,,significant down-regulation; also recorded: near total down-regulation,,,"620 ± 30^a, b nM",530 ± 100^a nM,approximately 100 fold
"C[CH2][Hg][S]c1ccccc1C(=O)[O-].[Na+] [Thimerosal, thimerosal]",low frequency,1 ± 0.4^b,180 ± 44^a sec,70 ± 16^a sec,,rapid and sustained down-regulation,,,330 ± 30^b nM,640 ± 90^a nM,
